Numbers after ± are expanded uncertainties.
Conditions: Liquid, Ebulliometric method (Recirculating still)

Cc1ccccc1C [1,2-dimethylbenzene]
vapor or sublimation pressure (417.43 K): 101.3 ± 1.2 kPa

CCCCOC(=O)CCC [butyl butanoate]
vapor or sublimation pressure (438.28 K): 101.3 ± 1.2 kPa

O=C1CCCCC1 [cyclohexanone]
vapor or sublimation pressure (428.57 K): 101.3 ± 1.2 kPa

COC(=O)OC [dimethyl carbonate]
vapor or sublimation pressure (363.36 K): 101.3 ± 1.2 kPa

CCO [ethanol]
vapor or sublimation pressure (351.45 K): 101.3 ± 1.2 kPa
